Assay results from patent US20160032005A1, “METHODS AND PHARMACEUTICALS COMPOSITIONS FOR TREATING BREAST CANCERS” (INSERM (Institut National de la Sante et de la Recherche …, priority 2014, published 2016).

Tests used:
[1] = system: SUM149 cells; assay: Cell migration assay (Boyden chamber, serum as chemo-attractant); assay type: cell-based; details: compared to Venus ctrl or shLuc
[2] = system: SUM149 cells; assay: Long-term cell proliferation and anchorage-independent soft agar assays; assay type: cell-based; details: compared to Venus ctrl or shLuc
Text: In order to challenge the role of Vangl2 in tumor growth, we first designed different short hairpin RNA (shRNA) to downregulate Vangl2 protein expression in SUM149, a basal breast cancer cell line, which were targeted to different sequences of the VANGL2 gene. Vangl2 expression is decreased by approximately 90% with shVangl2 (clone 3.6.9 and 3.2.12) compared shLuc controls. […] Behaviour of shLuc-SUM149 and shVangl2-SUM149 cells was next compared in long-term cell proliferation and anchorage-independent experiments using soft agar assays. Cell proliferation and in vitro tumorigenicity of SUM149 cells were decreased when expression of Vangl2 was decreased using shVangl2 clone 3.6.9. This effect was confirmed using a second shVangl2 clone 3.2.12. The tumorigenic potential of Vangl2 was next assessed in vivo by performing subcutaneous xenografts in NOG mice. Orthotopic injections of shLuc-SUM149 and shVangl2-SUM149 cells were performed and tumour growth was periodically measured.
As JNK signaling is usually activated following PCP activation, we next investigated this pathway in SUM149 cells. As previously shown, down-regulation of Vangl2 leads to a decrease in JNK signaling as shown using a time-dependent FCS stimulation of SUM149 transfected with shVangl2 compared to shLuc. No change in phosphorylation of GSK3 was evidenced in the absence of Vangl2. […]

[3] = target: T1, Vangl2-p62 interaction (Homo sapiens, UniProt Q9ULK5); assay: Co-immunoprecipitation in SUM149 cells expressing the construct; assay type: cell-based; details: construct expressed in SUM149 cells, compared to GFP alone
T1 construct: endogenous in cells; host or cells: SUM149 cells / cell extracts
T1 sequence (Q9ULK5 1-521): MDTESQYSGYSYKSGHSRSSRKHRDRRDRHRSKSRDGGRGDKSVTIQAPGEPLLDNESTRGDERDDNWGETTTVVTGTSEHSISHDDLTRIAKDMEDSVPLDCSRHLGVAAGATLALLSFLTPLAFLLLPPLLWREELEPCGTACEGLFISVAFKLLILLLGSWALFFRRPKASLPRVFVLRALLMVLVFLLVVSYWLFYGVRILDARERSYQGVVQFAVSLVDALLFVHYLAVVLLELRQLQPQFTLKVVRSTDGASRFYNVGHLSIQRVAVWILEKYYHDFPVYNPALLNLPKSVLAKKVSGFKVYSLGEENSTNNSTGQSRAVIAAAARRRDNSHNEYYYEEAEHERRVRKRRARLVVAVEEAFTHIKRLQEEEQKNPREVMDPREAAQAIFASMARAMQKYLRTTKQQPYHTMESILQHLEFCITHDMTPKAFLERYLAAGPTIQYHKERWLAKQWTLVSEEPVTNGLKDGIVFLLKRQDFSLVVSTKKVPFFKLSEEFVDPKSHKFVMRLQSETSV
Text: (§1) As JNK signaling is usually activated following PCP activation, we next investigated this pathway in SUM149 cells. As previously shown, down-regulation of Vangl2 leads to a decrease in JNK signaling as shown using a time-dependent FCS stimulation of SUM149 transfected with shVangl2 compared to shLuc. No change in phosphorylation of GSK3 was evidenced in the absence of Vangl2. […] Knock-down of p62 expression in SUM149 cells phenocopied lack of Vangl2 expression. […] Next, we fused the p62 (346-388) sequence to GFP and expressed the construct in SUM149 cells. […] Indeed, this construct was able to specifically coimmunoprecipitate with Vangl2 and furthermore compete with the endogenous Vangl2-p62 interaction as shown by the decreased amount of endogenous p62 associated with Vangl2. In order to assess the contribution of the Vangl2-p62 interaction in JNK signaling, we utilized the dominant negative region of p62 and expressed this as a GFP-tagged protein.

[4] = system: JNK signaling; assay: JNK signaling in SUM149 cells; assay type: cell-based; details: compared to GFP alone or shLuc
Text: as §1

[5] = target: T1, Vangl2-p62 interaction; assay: Competition of endogenous Vangl2-p62 interaction recovered by immunoprecipitation, peptide incubated in SUM149 cell extracts; assay type: binding; details: SUM149 cells / cell extracts
[6] = system: p62; assay: p62 immunolocalization and protein level under autophagy modulators; assay type: cell-based; details: breast cancer and Hela cells
Text: (§2) We next addressed the potential colocalization of Vangl2 and p62 in SUM149 cells by immunofluorescence and confocal analysis. In these cells, Vangl2 and p62 have a punctate cytoplasmic pattern and colocalization between the two proteins was seen puncta in the perinuclear region. Specificity of the Vangl2 signal is attested by lack of staining in cells treated with shVangl2. p62 is present in autophagosomes where it accumulates ubiquitinylated proteins bound to its UBA domain for autophagic degradation. Autophagy is active when the fusion between autophagosomes and lysosomes occur leading to the formation of autophagolysosomes endowed with degradative properties. The fusion process, and therefore autophagy, can be inhibited by Bafilomycin A1, an inhibitor of the vacuolar ATPase that blocks the fusion process by blocking the membrane-bound lysosomal vacuolar ATPase (V-ATPase) to prevent the lysosomal lumen acidification responsible for cathepsin activation. Alternatively, autophagy can be induced by rapamycin, an inhibitor of mTOR [38]. […] Decrease of p62 protein level can also be monitored by western blot. Vangl2 protein levels remained unmodified by rapamycin treatment while another prominent feature of autophagy, i.e. degradation of p62 was readily seen. […]

[7] = system: Vangl2; assay: Vangl2 protein level (western blot) and cellular distribution under autophagy modulators; assay type: cell-based
Text: as §2

Q: “Venus-p62 (346-388): Venus-tagged p62 (346-388) expressed by lentiviral infection” was tested. Which cell migration [1] did it give?
A: decrease

Q: And the “colonies in soft agar / in vitro tumorigenicity” value [2]?
A: fewer colonies

Q: With “GFP-p62 (346-388): p62 (346-388) sequence fused to GFP, expressed in SUM149 cells” as the compound, how does the “effect on endogenous Vangl2-p62 interaction in co-immunoprecipitation” value [3] read?
A: dominant-negative effect

Q: And the JNK signalling [4]?
A: decrease

Q: Which “disruption of the endogenous Vangl2-p62 interaction” value [5] does the source give for “polypeptide (346-371): polypeptide reduced in size, residues 346-371 of p62 (SEQ ID NO:2) (VDPSTGELQSLQMPESEGPSSLDPSQ; listed as Homo sapiens)” here?
A: able to inhibit

Q: What does the source list for CO/C1=C\C(C)=C\[C@@H](C)[C@@H](O)[C@@H](C)C/C(C)=C/C=C/[C@H](OC)[C@@H]([C@@H](C)[C@@H](O)[C@H](C)[C@@]2(O)C[C@@H](O)[C@H](C)[C@@H](C(C)C)O2)OC1=O [Bafilomycin A1]?
A: p62 immunolocalization [6]: accumulates; Vangl2 protein levels [7]: not modified
